Test results taken from patent US11365192B2, “Pyridine compound substituted with azole” (TAISHO PHARMACEUTICAL CO., LTD., priority 2017, dated 2022).

Key:
Format in all cases: biochemical
human CYP4F2 = human CYP4F2 (Homo sapiens (Human), UniProt P78329); assay: Inhibition test against 20-HETE producing enzyme CYP4F2 (luciferine derivative, luminescence)
Outline: (§1)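 IC50 derived from luminescence after 60 min at room temperature with membrane fractions of E. coli expressing each human CYP (100 μg/mL protein). For CYP4A11, 60 μM luciferin derivative in 100 mM Tris-HCl pH 7.5 with NADPH-regenerating system; for CYP4F2, 2.5 μM substrate, 1 mM NADPH, 50 mM KPO4 pH 7.4.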

human CYP4A11 = human CYP4A11 (Homo sapiens (Human), UniProt Q02928); assay: Inhibition test against 20-HETE producing enzyme CYP4A11 (luciferine derivative, luminescence)
human CYP4A11, sequence (Q02928 5-519): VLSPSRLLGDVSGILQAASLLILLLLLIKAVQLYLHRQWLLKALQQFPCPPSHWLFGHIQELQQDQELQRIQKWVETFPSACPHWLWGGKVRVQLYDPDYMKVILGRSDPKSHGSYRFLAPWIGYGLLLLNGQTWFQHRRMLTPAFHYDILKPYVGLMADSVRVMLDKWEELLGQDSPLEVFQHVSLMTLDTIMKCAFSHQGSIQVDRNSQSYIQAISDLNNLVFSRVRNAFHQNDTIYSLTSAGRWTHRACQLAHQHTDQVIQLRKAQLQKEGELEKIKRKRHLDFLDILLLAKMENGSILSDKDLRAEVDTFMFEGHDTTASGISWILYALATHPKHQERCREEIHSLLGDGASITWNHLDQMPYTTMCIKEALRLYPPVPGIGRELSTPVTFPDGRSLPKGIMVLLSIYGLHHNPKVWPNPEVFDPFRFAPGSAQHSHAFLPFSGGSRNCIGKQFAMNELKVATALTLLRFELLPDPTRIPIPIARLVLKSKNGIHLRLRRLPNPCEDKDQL
Outline: as §1

[1] = tested on: 20-HETE producing enzymes, human kidney microsome; assay: Inhibition test against 20-HETE producing enzymes using human kidney microsomes (LC-MS/MS); conditions: for inhibitory activities against 20-HETE producing enzymes compared to compound A and compound B: comparison with compound A and compound B of WO03/022821, human kidney microsomes; for IC50: human kidney microsome 250 μg/mL protein, 20 μM arachidonic acid, 37° C. 45 minutes, LC-MS/MS
Procedure: (1) Inhibition Test for Each Compound of the Present Invention Against 20-HETE Producing Enzymes Using Human Kidney Microsomes
The reaction solution containing each compound [final concentration of 100 mM, KPO4 (pH 7.4), 20 μM Arachidonic acid, 4 mM NADPH] was added to the human kidney microsome (250 μg/mL protein). Following this, the microsome was left to stand at 37° C. for 45 minutes to perform 20-HETE producing reaction. After adding formic acid to stop the reaction, 9 times amount of acetonitrile was added, and deproteinization was carried out by centrifugation (1000 rpm, 4° C., 10 minutes). After that, the peak area value of 20-HETE was measured using a liquid chromatograph-tandem mass spectrometer (LC-MS/MS), and by using that value, the percent inhibition of 20-HETE producing enzyme (%) was calculated according to the equation described below, and the 50% inhibitory concentration (IC50 value) for each compound was calculated. Percent inhibition of 20-HETE producing enzyme (%)=[1−(A−B)/(C−B)]*100
A: Peak area value of 20-HETE/peak area value of internal standard substance with addition of compound
B: Peak area value of 20-HETE/peak area value of internal standard substance without addition of compound and NADPH
C: Peak area value of 20-HETE/peak area value of internal standard substance without addition of compound
(3) Inhibition Test for Compound a and Compound B Disclosed in WO03/022821 Against 20-HETE Producing Enzymes Using Human Kidney Microsomes
For compound A and compound B disclosed in WO03/022821, which have been described above, the 50% inhibitory concentration (IC50 value) against 20-HETE producing enzymes was calculated according to the method described in Test Example 2.
On the other hand, as described above, in Test Example 2, nonradioactive arachidonic acid was used as a substrate for 20-HETE producing reaction, and the amount of 20-HETE produced was measured using LC-MS/MS. In this case, the concentration of arachidonic acid, the substrate, is 20 μM.
In recent years, it is recommended that the substrate concentration for calculating the IC50 value be set at the Km value (Assay Guidance Manual, Sittampalam et. al. (URL: http://www.ncbi.nlm.nih.gov/books/NBK53196/)). According to this, in Test Example 2 described above, human kidney microsomes were used to calculate the Km value, and the calculated Km value of 20 μM was set as the concentration of the substrate, arachidonic acid.

human CYP4F22 = human CYP4F22 (Homo sapiens (Human), UniProt Q6NT55); assay: CYP4F22 selectivity test; conditions: cell membrane fraction expressing human CYP4F22, 14 μM luciferine derivative, 50 minutes
human CYP4F22, sequence (Q6NT55 whole entry): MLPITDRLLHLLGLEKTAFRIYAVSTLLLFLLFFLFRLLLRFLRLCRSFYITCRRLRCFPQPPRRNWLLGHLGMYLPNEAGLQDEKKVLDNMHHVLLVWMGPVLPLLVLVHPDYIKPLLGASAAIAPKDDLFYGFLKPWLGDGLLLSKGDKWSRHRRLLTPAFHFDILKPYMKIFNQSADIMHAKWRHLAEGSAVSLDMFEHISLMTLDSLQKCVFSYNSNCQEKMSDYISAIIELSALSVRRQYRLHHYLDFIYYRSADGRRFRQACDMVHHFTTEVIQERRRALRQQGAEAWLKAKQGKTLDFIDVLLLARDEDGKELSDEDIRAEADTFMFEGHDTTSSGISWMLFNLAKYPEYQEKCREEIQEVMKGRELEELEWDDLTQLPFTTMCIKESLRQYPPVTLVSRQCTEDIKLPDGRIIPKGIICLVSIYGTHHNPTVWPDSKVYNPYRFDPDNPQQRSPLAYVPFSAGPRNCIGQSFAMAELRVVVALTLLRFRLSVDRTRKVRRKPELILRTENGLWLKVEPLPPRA
Procedure: (1) CYP4F22 Selectivity Test for Each Compound of the Present Invention
(§2) The reaction solution containing each compound [final concentration of 100 mM KPO4 (pH 7.4), 14 μM luciferine derivative, and 1 mM NADPH] was added to a cell membrane fraction (30 μg/mL protein) in which human CYP4F22 had been expressed. Following this, the cell membrane fraction was left to stand at room temperature for 50 minutes to perform an enzymatic reaction. After the reaction, a luciferine detection reagent was added, and the luminescence value was measured using a plate reader. By using that value, the percent inhibition of the enzymatic reaction of CYP4F22(%) was calculated according to the equation described below, and the 50% inhibitory concentration (IC50 value) for each compound was calculated. Percent inhibition of CYP4F22 enzyme (%)=[1−(A−B)/(C−B)]*100
(§3) A: Luminescence value with addition of compound
(§4) B: Luminescence value without addition of compound and enzyme
(§5) C: Luminescence value without addition of compound

human CYP4V2 = human CYP4V2 (Homo sapiens (Human), UniProt Q6ZWL3); assay: CYP4V2 selectivity test; conditions: cell membrane fraction expressing human CYP4V2, 7 μM luciferine derivative, 40 minutes
human CYP4V2, sequence (Q6ZWL3 whole entry): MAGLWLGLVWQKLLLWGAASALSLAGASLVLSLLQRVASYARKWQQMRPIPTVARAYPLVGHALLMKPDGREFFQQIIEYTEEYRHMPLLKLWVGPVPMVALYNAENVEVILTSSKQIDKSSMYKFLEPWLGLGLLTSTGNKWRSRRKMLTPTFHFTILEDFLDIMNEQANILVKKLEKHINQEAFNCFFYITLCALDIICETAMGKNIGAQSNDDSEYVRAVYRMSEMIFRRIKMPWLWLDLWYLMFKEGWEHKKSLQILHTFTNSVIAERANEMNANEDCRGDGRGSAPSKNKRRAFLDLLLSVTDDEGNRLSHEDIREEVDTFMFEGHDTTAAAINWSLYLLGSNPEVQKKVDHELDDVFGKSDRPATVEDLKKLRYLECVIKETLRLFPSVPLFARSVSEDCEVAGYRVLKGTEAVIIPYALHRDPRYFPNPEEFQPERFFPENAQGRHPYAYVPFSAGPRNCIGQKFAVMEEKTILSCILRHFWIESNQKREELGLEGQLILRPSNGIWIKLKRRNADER
Procedure: (3) CYP4V2 Selectivity Test for Each Compound of the Present Invention
as §2, with “7.4), 7” for “7.4), 14”, “fraction (38” for “fraction (30”, “human CYP4V2” for “human CYP4F22”, “for 40” for “for 50”, “of CYP4V2(%)” for “of CYP4F22(%)”, “of CYP4V2” for “of CYP4F22”
as §3, §4, §5

[2] = E. coli membrane fraction expressing human CYP4F2, 2.5 μM luciferine derivative, room temperature 60 minutes
[3] = E. coli membrane fraction expressing human CYP4A11, 60 μM luciferine derivative, room temperature 60 minutes
[4] = human CYP4F2, luciferine derivative, luminescence
[5] = human CYP4A11, luciferine derivative, luminescence

human CYP4F2, sequence (P78329 5-520): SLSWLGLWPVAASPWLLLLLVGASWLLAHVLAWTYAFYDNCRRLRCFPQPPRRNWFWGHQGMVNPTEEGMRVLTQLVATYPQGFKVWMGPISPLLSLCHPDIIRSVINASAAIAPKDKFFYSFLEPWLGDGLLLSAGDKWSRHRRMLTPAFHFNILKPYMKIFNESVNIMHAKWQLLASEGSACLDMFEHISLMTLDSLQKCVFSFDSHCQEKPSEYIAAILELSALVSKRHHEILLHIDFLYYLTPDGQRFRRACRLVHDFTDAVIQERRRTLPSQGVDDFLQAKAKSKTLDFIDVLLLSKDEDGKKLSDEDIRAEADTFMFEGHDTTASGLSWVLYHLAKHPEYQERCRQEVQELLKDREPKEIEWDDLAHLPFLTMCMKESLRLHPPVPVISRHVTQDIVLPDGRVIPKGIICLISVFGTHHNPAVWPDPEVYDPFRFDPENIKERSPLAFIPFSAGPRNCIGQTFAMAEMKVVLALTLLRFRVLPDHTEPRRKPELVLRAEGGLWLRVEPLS

Compound | IC50 (human CYP4F2; [2]) | IC50 (human CYP4A11; [3]) | inhibitory activities against 20-HETE producing enzymes compared to compound A and compound B [1] | IC50 [1] | IC50 (human CYP4F2; [4]) | IC50 (human CYP4A11; [5]) | IC50 (human CYP4F22) | IC50 (human CYP4V2)
O=C(O)C1CC1c1cccc(COc2ccc(-c3ccn[nH]3)nc2)c1 (single isomer, unassigned) [Example 26-2, trans-2-[3-[[6-(1H-Pyrazol-5-yl)-3-pyridinyl]oxymethyl]phenyl]-1-cyclopropanecarboxylic Acid (Optically Active Substance)] | 890 nM | 23 nM | stronger inhibitory activities | 26 nM |  |  |  | 
O=C(O)C1CC1c1cccc(COc2ccc(-c3ccn[nH]3)nc2)c1 (single isomer, unassigned) [Example 26-3, trans-2-[3-[[6-(1H-Pyrazol-5-yl)-3-pyridinyl]oxymethyl]phenyl]-1-cyclopropanecarboxylic Acid (Optically Active Substance, Enantiomer of Compound of Example 26-2)] | 1500 nM | 24 nM | stronger inhibitory activities | 30 nM |  |  |  | 
CC(=O)N1CCN(CCOc2ccc(-c3ccn[nH]3)cc2)CC1 [Compound A, reference compound] | 1000 nM | 11000 nM |  | 408 nM |  |  |  | 
CCOC(=O)N1CCN(CCOc2ccc(-c3ccn[nH]3)cn2)CC1 [Compound B, reference compound] | 36000 nM | > 50000 nM |  | 15600 nM |  |  |  | 
O=C(O)C12CC(CCCCCCOc3ccc(-c4ccn[nH]4)nc3)(C1)C2 [Example 1-53] | 330 nM | 61 nM | stronger inhibitory activities | 14 nM |  |  |  | 
O=C(O)C1CCc2ccc(COc3ccc(-c4ccn[nH]4)nc3)cc2C1 (stereo not drawn) [Example 1-56] | 170 nM | 27 nM | stronger inhibitory activities | 20 nM |  |  |  | 
CC(C)(COCCCCCCOc1ccc(-c2ccn[nH]2)nc1)C(=O)O [Example 1-57, 2,2-Dimethyl-3-[6-[[6-(1H-pyrazol-5-yl)-3-pyridinyl]oxy]hexoxy]propanoic Acid] | 340 nM | 110 nM | stronger inhibitory activities | 19 nM |  |  |  | 
O=C(O)C1COc2ccc(COc3ccc(-c4ccn[nH]4)nc3)cc2C1 (stereo not drawn) [Example 1-68] | 640 nM | 28 nM | stronger inhibitory activities | 26 nM |  |  |  | 
O=C(O)C1CCc2ccc(COc3ccc(-c4ccn[nH]4)nc3)cc2O1 (stereo not drawn) [Example 1-70] | 140 nM | 62 nM | stronger inhibitory activities | 37 nM |  |  |  | 
O=C(O)C1(CCCCCCCCOc2ccc(-c3ccn[nH]3)nc2)CCOCC1 [Example 3-1, 4-[8-[[6-(1H-Pyrazol-5-yl)-3-pyridinyl]oxy]octyl]-4-oxanecarboxylic Acid] | 24 nM | 190 nM | stronger inhibitory activities | 10 nM |  |  |  | 
O=C(O)c1ccc2c(c1)CC(COc1ccc(-c3ccn[nH]3)nc1)CC2 (stereo not drawn) [Example 5-1, 7-[[6-(1H-Pyrazol-5-yl)-3-pyridinyl]oxymethyl]-5,6,7,8-tetrahydronaphthalene-2-carboxylic Acid] | 33 nM | 22 nM | stronger inhibitory activities | 8.2 nM |  |  |  | 
O=C(O)C1CCCN(S(=O)(=O)c2cccc(COc3ccc(-c4ccn[nH]4)nc3)c2)C1 (stereo not drawn) [Example 22-9] | 180 nM | 45 nM | stronger inhibitory activities | 15 nM |  |  |  | 
O=C(O)C1(F)CCN(S(=O)(=O)c2cccc(COc3ccc(-c4ccn[nH]4)nc3)c2)C1 (stereo not drawn) [Example 22-11] | 700 nM | 28 nM | stronger inhibitory activities | 15 nM |  |  |  | 
CC(C)(COc1cc(COc2ccc(-c3ccn[nH]3)nc2)ccn1)C(=O)O [Example 22-14] | 380 nM | 70 nM | stronger inhibitory activities | 32 nM |  |  |  | 
O=C(O)C1(OCCCCCCCCOc2ccc(-c3ccn[nH]3)nc2)CCOCC1 [Example 68-1, 4-[8-[[6-(1H-Pyrazol-5-yl)-3-pyridinyl]oxy]octoxy]-4-oxanecarboxylic Acid] | 39 nM | 620 nM | stronger inhibitory activities | 6.9 nM |  |  |  | 
O=C(O)[C@@H]1C[C@@H]1c1ccc(CCOc2ccc(-c3ccn[nH]3)nc2)cc1 [Example 70-10-1] |  |  |  | 6.4 nM | 120 nM | 160 nM | 2300 nM | 3300 nM
CC(C)(OCCCCCCCOc1ccc(-c2cnco2)nc1)C(=O)O [Example 76-1, 2-Methyl-2-[7-[6-(1,3-oxazol-5-yl)pyridin-3-yl]oxyheptoxy]propanoic Acid] |  |  |  |  | 1500 nM | 740 nM |  | 

Results, then the molecule that gave them:

IC50 (human CYP4F2; [2]) | IC50 (human CYP4A11; [3]) | inhibitory activities against 20-HETE producing enzymes compared to compound A and compound B [1] | IC50 [1] | IC50 (human CYP4F2; [4]) | IC50 (human CYP4A11; [5]) | IC50 (human CYP4F22) | IC50 (human CYP4V2) | Compound
 |  |  | 6 nM | 83 nM | 110 nM | 1900 nM | 2100 nM | O=C(O)C1CC1c1ccc(CCOc2ccc(-c3ccn[nH]3)nc2)c(F)c1 (single isomer, unassigned) [Example 71-18]
 |  |  | 16 nM | 320 nM | 50 nM | 1400 nM | 2900 nM | O=C(O)C1CC1c1cccc(CCOc2ccc(-c3ccn[nH]3)nc2)c1 (stereo not drawn) [Example 70-7]
 |  |  | 11 nM | 100 nM | 230 nM | 370 nM | 1200 nM | O=C(O)C1(OCCCCCCCOc2ccc(-c3ccn[nH]3)nc2)COC1 [Example 71-6]
 |  |  |  | 780 nM | 720 nM |  |  | CC(C)(COc1ccc(COc2ccc(-c3ccn[nH]3)nc2)cn1)C(=O)O [Example 75-5]
 |  |  |  | 1700 nM | 180 nM |  |  | CC(C)(COc1cccc(COc2ccc(-c3ccn[nH]3)nc2)n1)C(=O)O [Example 75-6]
